Data on 3 molecules can be found in paper PMC11249646, “Small-Molecule Disruptors of the Interaction between Calcium- and Integrin-Binding Protein 1 and Integrin αIIbβ3 as Novel Antiplatelet Agents” (ACS Pharmacology & Translational Science, 2024).

Like-named read-outs stand apart in the source and are kept apart here.

The target of assay [1] is T1, GST-CIB1:F-αIIb interaction (Homo sapiens, UniProt Q99828).
T1 construct: made in house; host or cells: BL-21 plus RIL cells (E. coli)
T1 sequence (Q99828 1-191): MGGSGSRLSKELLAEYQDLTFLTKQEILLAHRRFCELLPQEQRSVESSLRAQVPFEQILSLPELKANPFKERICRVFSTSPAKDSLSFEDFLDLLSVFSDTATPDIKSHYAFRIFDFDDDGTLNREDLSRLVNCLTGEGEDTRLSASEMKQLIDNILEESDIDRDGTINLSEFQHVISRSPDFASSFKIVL
The assay can be described thus: Gel-based (in-gel) binding assay. Particulars: 1 μM GST-CIB1, 400 nM F-αIIb; for Active in Gel Assay?: 60 μM, 1:2, 4-points; for Inhibited concentration in gel (µM): concentrations tested 60, 30, 15, 7.5.

Assay [2] deals with T2, GST-CIB1 : F-scrambled peptide (Homo sapiens, UniProt Q99828).
T2 construct: made in house; host or cells: BL-21 plus RIL cells (E. coli)
T2 sequence (Q99828 1-191): T1 sequence (Q99828 1-191)
The experiment in a line: FP scrambled-peptide counter screen, 384-well format. To be noted: F-scrambled peptide; for 384-well COUNTERSCREEN Confirm?: *: Curve in opposite direction; for IC50: read-out: 384-well COUNTERSCREEN IC50. The format is binding. On the technique in general: Counterscreens check selectivity or assay interference.

Assay [3] addresses T3, GST-CIB1 : F-αIIb peptide (Homo sapiens, UniProt Q99828).
T3 construct: made in house; host or cells: BL-21 plus RIL cells (E. coli)
T3 sequence (Q99828 1-191): T1 sequence (Q99828 1-191)
The experiment in a line: FP assay in the presence of glutathione (GSH), thiol reactivity. Type of assay: binding. To be noted: for GSH/CIB1 IC50 ratio: ratio of GSH (+) IC50 to GSH (-) IC50; for shift in potency in the presence of GSH: with vs without 10 μM reduced GSH.

Assay [4] has as its target T4, CIB1 and αIIb interaction (GST-CIB1 : F-αIIb peptide) (Homo sapiens, UniProt Q99828).
T4 construct: made in house; host or cells: BL-21 plus RIL cells (E. coli)
T4 sequence (Q99828 1-191): T1 sequence (Q99828 1-191)
The experiment in a line: FP assay, 384-well format (screen). The format is binding. Also noted: 384-well SCREEN Efficacy (%): concentration or dose not given beside the values. To be noted: F-αIIb peptide; for 384-well SCREEN Confirm?: YES/NO; for IC50: read-out: 384-well SCREEN IC50.

Assay [5] deals with T2, GST-CIB1 : F-scrambled peptide. The assay can be described thus: FP scrambled-peptide counter screen, 1536-well format. The format is binding. To be noted: scrambled-peptide counterscreen; for COUNTERSCREEN Confirm?: YES/NO call; for COUNTERSCREEN Curve Class: qHTS curve class.
Assay [6] has as its target T5, CIB1 and αIIb interaction (CIB1-GST : F-αIIb peptide) (Homo sapiens, UniProt Q99828).
T5 construct: made in house; host or cells: BL-21 plus RIL cells (E. coli)
T5 sequence (Q99828 1-191): T1 sequence (Q99828 1-191)
The experiment in a line: FP assay, 1536-well qHTS format (primary and confirmatory screen). Type of assay: binding. Particulars: for CONFIRMATORY SCREEN Confirm?: YES/NO call; for CONFIRMATORY SCREEN Curve Class: qHTS curve class; for CONFIRMATORY SCREEN Curve Class / Curve Class: negative sign = inhibitory curve; for CONFIRMATORY SCREEN Efficacy (%) / Efficacy (%): negative = inhibition. (qHTS replaces the single test concentration by a dilution series.)

Setting [7] is: FP assay in the presence of glutathione (GSH +), read-out: GSH (+) Assay IC50.
The mark [8] stands for this setting: FP assay without glutathione (GSH -), read-out: GSH (-) Assay IC50.
[9] abbreviates: confirmatory screen, read-out: CONFIRMATORY SCREEN IC50.

As a reminder, the IC50 is the concentration needed to halve the response being measured. With `CCN(CC)C(=S)SSC(=S)N(CC)CC` [NCGC00016000-13, disulfiram, reference compound], the “Active in Gel Assay?” value in assay [1] was “YES”. Besides, in assay [2], the “384-well COUNTERSCREEN Efficacy (%)” value was found to be 34%, the “384-well COUNTERSCREEN Confirm?” value was “YES” and the half-inhibitory concentration (IC50) was greater than 120 µM. In addition, in assay [3], the “IC50 shift in the presence of GSH” value is listed as 8.5 fold and the “GSH/CIB1 IC50 ratio” value was found to be 8.5. The IC50 in assay [3] (setting [7]) stood at 27 µM. For the same molecule, in assay [3] (setting [8]), the IC50 amounted to 3.2 µM. In assay [4], the “384-well SCREEN Efficacy (%)” value is 95%, the “384-well SCREEN Confirm?” value was “YES” and the half-maximal inhibitory concentration (IC50) was 1.6 µM. For the same molecule, in assay [5], the “COUNTERSCREEN Efficacy (%)” value was -13%, the “COUNTERSCREEN Confirm?” value is “YES” and the “COUNTERSCREEN Curve Class” value came out at 4. For the same molecule, in assay [6] (confirmatory screen), the “CONFIRMATORY SCREEN Confirm?” value is on record as “YES”, the “CONFIRMATORY SCREEN Curve Class” value is listed as -1.2 and the “CONFIRMATORY SCREEN Efficacy (%)” value is -72%. In assay [6] (setting [9]), the IC50 came out at 14.1 µM.
Turning to `CC(C)(C)c1ccc(SC2=NS(=O)(=O)c3ccccc32)cc1` [NCGC00189495-01], in assay [1], the “Active in Gel Assay?” value was “YES” and the “Inhibited concentration in gel (µM)” value is listed as 60,30 µM. In assay [2], the “384-well COUNTERSCREEN Efficacy (%)” value came to 25%, the “384-well COUNTERSCREEN Confirm?” value is on record as “YES” and the IC50 was greater than 120 µM. Also, in assay [3] (setting [7]), the IC50 is greater than 120 µM. For the same molecule, the IC50 in assay [3] (setting [8]) is 6.2 µM. Further, in assay [3], the “GSH/CIB1 IC50 ratio” value is on record as 28.3 and the “shift in potency in the presence of GSH” value is listed as “right-shift in potency”. Also, in assay [4], the “384-well SCREEN Efficacy (%)” value was 35%, the “384-well SCREEN Confirm?” value is “YES” and the IC50 is 8.9 µM. In addition, in assay [5], the “COUNTERSCREEN Efficacy (%)” value was 0%, the “COUNTERSCREEN Confirm?” value is “YES” and the “COUNTERSCREEN Curve Class” value is listed as 4. Also, in assay [6] (confirmatory screen), the “CONFIRMATORY SCREEN Confirm?” value was “YES”, the “CONFIRMATORY SCREEN Curve Class” value is -2.4 and the “CONFIRMATORY SCREEN Efficacy (%)” value is reported as -62%. The IC50 in assay [6] (setting [9]) is 31.6 µM. Besides, the “Efficacy (%)” value in assay [6] (qHTS FP screen hits, Table S2) is given as -38%. Besides, the “Curve Class” value in assay [6] (qHTS FP screen hits, Table S2, one class per curve where COUNT > 1) is recorded as -2.2. The IC50 in assay [6] (qHTS FP screen hits, Table S2, read-out: IC50) came to 39.8 µM.
Take `S=C(SSC(=S)N1CCCCC1)N1CCCCC1` [NCGC00181776-02, dipentamethylenethiuram disulfide]: in assay [1], the “Active in Gel Assay?” value is given as “YES” and the “Inhibited concentration in gel (µM)” value is given as 60,30 µM. Also, in assay [2], the “384-well COUNTERSCREEN Efficacy (%)” value is 38%, the “384-well COUNTERSCREEN Confirm?” value is given as “YES” and the IC50 is greater than 120 µM. The “shift in potency in the presence of GSH” value in assay [3] is on record as “right-shift in potency”. In assay [4], the “384-well SCREEN Efficacy (%)” value was determined as 80%, the “384-well SCREEN Confirm?” value is given as “YES” and the IC50 was determined as 6.3 µM. In assay [5], the “COUNTERSCREEN Efficacy (%)” value turned out to be 0%, the “COUNTERSCREEN Confirm?” value is “YES” and the “COUNTERSCREEN Curve Class” value came out at 4. In addition, in assay [6] (confirmatory screen), the “CONFIRMATORY SCREEN Confirm?” value is recorded as “YES”, the “CONFIRMATORY SCREEN Curve Class” value was -1.4 and the “CONFIRMATORY SCREEN Efficacy (%)” value is -72%. In addition, the IC50 in assay [6] (setting [9]) is 25.1 µM. In addition, the “Efficacy (%)” value in assay [6] (qHTS primary screen hits, Table S2) is on record as -64%. Moreover, the “Curve Class” value in assay [6] (qHTS primary screen hits, Table S2, several classes where COUNT > 1) is listed as -1.2. In addition, the IC50 in assay [6] (qHTS primary screen hits, Table S2, read-out: IC50) was 28.2 µM.
